{"source": "patent US9687529B2", "about": "“Method of controlling coagulation” (Duke University, priority 2011, dated 2017)", "key": {"[1]": {"tested_on": "clot formation in whole blood", "test": "Thromboelastography (TEG), whole blood stimulated with tissue factor", "format": "cell-based, human", "experimental": "(§1) Blood was drawn from healthy, consented volunteers under a Duke University Institutional Review Board approved protocol and anticoagulated with 3.2% sodium citrate. Whole blood (320 μL) was mixed with anticoagulant (heparin or aptamers) (10 μL) and kaolin (Haemonetics, Niles, Ill.) (10 μL) or CAT PRP reagent (Diagnostica Stago, 0.33 ρM TF final) (10 μL) was added to stimulate clotting. CaCl2 (20 μL) was immediately added to overcome the citrate, the mixture was added to a plain disposable plastic TEG cup (Haemonetics), and the assay was run according to the manufacturer's instructions. Clot formation at 37° C. was measured with a Thromboelastograph Analyzer (Haemonetics, Niles, Ill.) until a stable clot was formed (i.e., a maximum amplitude was reached) or for three hours with the aptamer combinations. The time lag time, α-angle, and maximum amplitude were automatically calculated by the TEG® Analytical Software version 4.2.3 (Haemonetics).\nBecause kaolin stimulates blood via the intrinsic pathway, it is unlikely that 7S-1 (FVIIa aptamer) would impair clot formation with this type of stimulation; thus, this aptamer was tested in a modified TEG with TF stimulation. CAT platelet rich plasma (PRP) reagent (TF) was diluted to a final concentration of 0.33 ρM TF to stimulate clotting."}, "[2]": {"tested_on": "clot formation in whole blood", "test": "TEG of whole blood, coagulation triggered by kaolin (Example I)", "format": "cell-based", "details": "for α: buffer 44.9 degrees; for MA: buffer 63.1 mm; for R: buffer 6.8 minutes", "experimental": "TEG is a waveform generated from serial measurements of the torque transmitted from a small oscillating cup to the tip of a metal pin inserted into the cup by a 360 microliter sample of blood or plasma added to the cup.\nA 360 microliter blood sample has been added to the cup. For 180 minutes after the sample is added, the cup oscillates alternatively clockwise and counterclockwise through an arc of 4° 45′ at a frequency of one oscillation cycle—i. e., one clockwise rotation and one counterclockwise rotation—every 10 seconds. The lower end of the pin is immersed by the sample; the upper end is suspended from a torsion wire. The TEG analyzer records a single measurement of rotation-induced torque after each clockwise rotation and after each counterclockwise rotation of the cup. “The torque of the rotating cup is transmitted to the immersed pin only after fibrin-platelet bonding has linked the cup and [the] pin together. The strength of these fibrin-platelet bonds affects the magnitude of the pin motion, such that strong clots move the pin directly in phase with the cup motion. Thus, the magnitude of the output is directly related to the strength of the formed clot . . . . [If] the clot retracts or lyses, these bonds are broken and the transfer of cup motion is diminished. The rotation movement of the pin is converted by a mechanical-electrical transducer to an electrical signal which can be monitored by a computer” (TEG 5000 User Manual, pp 3-4, 1999-2007)). The computer converts the series of electrical signals into the TEG tracing.\nIn the absence of an anticoagulant (A), R was 6.8 minutes, α was 44.9 degrees, and MA was 63.1 mm. […] Thus, each aptamer, to varying degrees, prolonged the time to clot formation, reduced the rate of clot strengthening, and reduced the ultimate strength of the clot. However, as was true in the previous experiment, no aptamer acting alone at the concentrations tested prevented clot formation."}, "[3]": {"tested_on": "clot formation in normal human platelet poor plasma", "test": "Activated partial thromboplastin time (aPTT) plasma clotting assay", "format": "biochemical", "details": "for increase of aPTT clotting time: 4 μM aptamer", "experimental": "The activated partial thromboplastin time (aPTT) and prothrombin time (PT) assays were performed on a model ST4 mechanical coagulometer (Diagnostica Stago, Parsippany, N.J.) as previously described (Bompiani et al, J Thromb Haemost 10:870-80 (2012)). For the aPTT, 50 μL of normal human platelet poor plasma (PPP) was incubated with 50 μL TriniClot aPTT S (Trinity BioTech, Bray, Co Wicklow, Ireland) at 37° C. for 5 min. Aptamer(s) (5 μL) was added, and the mixture was incubated at 37° C. for another 5 min, and CaCl2 (50 μL) was added to initiate the assay. For the PT, 50 μL of normal human PPP was incubated with 5 μL of aptamer(s) at 37° C. for 5 min. TriniClot PT Excel reagent (Trinity BioTech, Bray, Co Wicklow, Ireland) (100 μL) was added to initiate the reaction. Assays with a combination of two aptamers contain an equimolar concentration of each individual aptamer, and the data shown are the total RNA concentration.\nTo compare the anticoagulant effect of these four aptamers, dose-response titrations were performed in several clinical plasma-based clotting assays. The activated partial thromboplastin time (aPTT) and prothrombin time (PT) are plasma clotting assays that are clinically used to probe for abnormalities in the intrinsic and extrinsic coagulation pathways, respectively (Van Cott et al, editors. Jacobs & DeMott laboratory test handbook. 5th ed. Hudson Ohio: Lexi-Comp. p. 327-58 (2001)). These relatively simple assays measure the time until clot formation in platelet poor plasma (PPP) in response to either robust tissue factor (TF), or contact stimulation via negatively charged surfaces (i.e., silica, kaolin, celite). […] At high concentrations, the prothrombin aptamer (R9D-14T) was the most robust anticoagulant and inhibited greater than 96% of prothrombin activity in the aPTT and PT. At 4 μM, R9D-14T increased the aPTT clotting time approximately 18-fold and the PT clotting time greater than 80-fold (exceeded the assay limit of 999 sec). […] At the same dose, the FIXa aptamer (9.3T) inhibited greater than 99% of FIX activity and increased the aPTT clotting time approximately 5.5-fold, while the FVIIa aptamer (7S-1) increased the PT clotting time 3-fold and inhibited greater than 99% of FVII activity (FIGS. 20A and 20B)."}, "[4]": {"tested_on": "clot formation in whole blood", "test": "Thromboelastography (TEG), whole blood stimulated with kaolin", "format": "cell-based, human", "experimental": "as §1\nAlthough the aPTT, PT, and CAT assays provide basic information about dose-dependent anticoagulation, these assays are performed in an environment that lacks platelets. Platelets play a crucial role in clot formation by providing a membrane surface upon which the clotting factors assemble, by aggregating and becoming physically incorporated into the blood clot, and by releasing internal stores of agonists that amplify coagulation (Monroe et al, Arterioscler Thromb Vasc Biol 22:138 1-9 (2002)). Therefore, a study was made of aptamer anticoagulation with thromboelastography (TEG), which provides real-time information about the kinetics of clot formation in whole blood (Reikvam et al, Transfus Apher Sci; 40:119-23 (2009). The TEG assay uses mechanical motion to quantify the physical properties of clot formation, including the lag time (the time until clot formation), the α-angle (the rate of clot formation), and the maximum amplitude (the mechanical strength of the clot formed)."}}, "note": "Values joined by “and” are separate entries in the source; they are usually repeats but may differ in a detail not shown here. Identical values can stand only once."}
{"substance": "9.3T: FIXa aptamer, 2'-fluoropyrimidine modified RNA, SEQ ID NO: 1 (AUGGGGACUAUACCGCGUAAUGCUGCCUCCCCAU; 2'-fluoro at CU, RNA at AG, backbone not given here) [Aptamer 9.3T]", "values": [{"measurement": "Angle", "setting": "[1]; RNA 1.00 μM", "value": "66.3 deg and 66.3 ± 1.3 deg"}, {"measurement": "Lag-time", "setting": "[1]; RNA 1.00 μM", "value": "4.5 min and 4.5 ± 0.5 min"}, {"measurement": "Max. Amplitude", "setting": "[1]; RNA 1.00 μM", "value": "69.1 mm and 69.1 ± 1.5 mm"}, {"measurement": "α", "setting": "[2]; 2.0 micromolar, kaolin", "value": 36.6, "unit": "degrees"}, {"measurement": "MA", "setting": "[2]; 2.0 micromolar, kaolin", "value": 58.6, "unit": "mm"}, {"measurement": "R", "setting": "[2]; 2.0 micromolar, kaolin", "value": 29.2, "unit": "min"}, {"measurement": "time of clot formation (bifurcation)", "setting": "[2]; FIXa aptamer 0.5 micromolar, kaolin", "value": 22.1, "unit": "min"}, {"measurement": "increase of aPTT clotting time", "setting": "[3]", "value": "approximately 5.5 fold"}, {"measurement": "Angle", "setting": "[4]; RNA 0.5 μM", "value": "41.4 ± 0.5", "unit": "deg"}, {"measurement": "Lag-time", "setting": "[4]; RNA 0.5 μM", "value": "22.8 ± 2.0", "unit": "min"}, {"measurement": "Max. Amplitude", "setting": "[4]; RNA 0.5 μM", "value": "55.4 ± 3.2", "unit": "mm"}, {"measurement": "Angle", "setting": "[4]; RNA 1.0 μM", "value": "37.6 deg and 37.6 ± 7.1 deg"}, {"measurement": "Lag-time", "setting": "[4]; RNA 1.0 μM", "value": "25.5 min and 25.5 ± 1.8 min"}, {"measurement": "Max. Amplitude", "setting": "[4]; RNA 1.0 μM", "value": "55.4 mm and 55.4 ± 2.6 mm"}, {"measurement": "Angle", "setting": "[4]; RNA 2.0 μM", "value": "36.9 ± 2.9", "unit": "deg"}, {"measurement": "Lag-time", "setting": "[4]; RNA 2.0 μM", "value": "29.9 ± 1.4", "unit": "min"}, {"measurement": "Max. Amplitude", "setting": "[4]; RNA 2.0 μM", "value": "55.9 ± 3.4", "unit": "mm"}]}
{"substance": "11F7T: FXa aptamer, 2'-fluoropyrimidine modified RNA, SEQ ID NO: 2 (GAGAGCCCCAGCGAGAUAAUACUUGGCCCCGCUCUU; 2'-fluoro at CU, RNA at AG, backbone not given here) [Aptamer 11F7T]", "values": [{"measurement": "Angle", "setting": "[1]; RNA 2.00 μM", "value": "21.4 deg and 21.4 ± 7.3 deg"}, {"measurement": "Lag-time", "setting": "[1]; RNA 2.00 μM", "value": "51.1 min and 51.1 ± 12.2 min"}, {"measurement": "Max. Amplitude", "setting": "[1]; RNA 2.00 μM", "value": "51.1 mm and 51.1 ± 1.6 mm"}, {"measurement": "α", "setting": "[2]; 2.0 micromolar, kaolin", "value": 29.8, "unit": "degrees"}, {"measurement": "MA", "setting": "[2]; 2.0 micromolar, kaolin", "value": 48.4, "unit": "mm"}, {"measurement": "R", "setting": "[2]; 2.0 micromolar, kaolin", "value": 22.5, "unit": "min"}, {"measurement": "clot formation in TEG assays, single agents (in words)", "setting": "[2]; data not shown", "value": "delay, but do not prevent clot formation"}, {"measurement": "increase of aPTT clotting time", "setting": "[3]", "value": "approximately 11 fold"}, {"measurement": "Angle", "setting": "[4]; RNA 0.5 μM", "value": "40.3 ± 1.4", "unit": "deg"}, {"measurement": "Lag-time", "setting": "[4]; RNA 0.5 μM", "value": "15.6 ± 0.8", "unit": "min"}, {"measurement": "Max. Amplitude", "setting": "[4]; RNA 0.5 μM", "value": "52.4 ± 1.6", "unit": "mm"}, {"measurement": "Angle", "setting": "[4]; RNA 1.0 μM", "value": "28.7 ± 5.0", "unit": "deg"}, {"measurement": "Lag-time", "setting": "[4]; RNA 1.0 μM", "value": "20.6 ± 3.0", "unit": "min"}, {"measurement": "Max. Amplitude", "setting": "[4]; RNA 1.0 μM", "value": "48.2 ± 3.7", "unit": "mm"}, {"measurement": "Angle", "setting": "[4]; RNA 2.0 μM", "value": "18 deg and 18.0 ± 5.9 deg"}, {"measurement": "Lag-time", "setting": "[4]; RNA 2.0 μM", "value": "39.6 min and 39.6 ± 9.1 min"}, {"measurement": "Max. Amplitude", "setting": "[4]; RNA 2.0 μM", "value": "39.6 mm and 39.6 ± 4.4 mm"}]}
{"substance": "R9D-14T: prothrombin/thrombin aptamer, 58-base truncation of RNA9D-14, SEQ ID NO: 3 (GGCGGTCGATCACACAGTTCAAACGTAATAAGCCAATGTACGAGGCAGACGACTCGCC; 2'-fluoro at CT, RNA at AG, backbone and T or U not given here) [Aptamer R9D-14T]", "values": [{"measurement": "Angle", "setting": "[1]; RNA 5.00 μM", "value": "15.2 deg and 15.2 ± 2.5 deg"}, {"measurement": "Lag-time", "setting": "[1]; RNA 5.00 μM", "value": "39.4 min and 39.4 ± 5.0 min"}, {"measurement": "Max. Amplitude", "setting": "[1]; RNA 5.00 μM", "value": "36.8 mm and 36.8 ± 1.4 mm"}, {"measurement": "α", "setting": "[2]; 5.0 micromolar, kaolin", "value": 18.6, "unit": "degrees"}, {"measurement": "MA", "setting": "[2]; 5.0 micromolar, kaolin", "value": 42.5, "unit": "mm"}, {"measurement": "R", "setting": "[2]; 5.0 micromolar, kaolin", "value": 31.3, "unit": "min"}, {"measurement": "increase of aPTT clotting time", "setting": "[3]", "value": "approximately 18 fold"}, {"measurement": "prothrombin activity inhibited", "setting": "[3]; aPTT, high concentrations", "value": "greater than 96%"}, {"measurement": "Angle", "setting": "[4]; RNA 1.25 μM", "value": "60.4 ± 2.4", "unit": "deg"}, {"measurement": "Lag-time", "setting": "[4]; RNA 1.25 μM", "value": "7.1 ± 1.4", "unit": "min"}, {"measurement": "Max. Amplitude", "setting": "[4]; RNA 1.25 μM", "value": "62.0 ± 3.0", "unit": "mm"}, {"measurement": "Angle", "setting": "[4]; RNA 2.0 μM", "value": "48.1 ± 9.7", "unit": "deg"}, {"measurement": "Lag-time", "setting": "[4]; RNA 2.0 μM", "value": "8.3 ± 2.0", "unit": "min"}, {"measurement": "Max. Amplitude", "setting": "[4]; RNA 2.0 μM", "value": "56.0 ± 6.3", "unit": "mm"}, {"measurement": "Angle", "setting": "[4]; RNA 5.0 μM", "value": "30 deg and 30.0 ± 5.7 deg"}, {"measurement": "Lag-time", "setting": "[4]; RNA 5.0 μM", "value": "21.5 min and 21.5 ± 4.9 min"}, {"measurement": "Max. Amplitude", "setting": "[4]; RNA 5.0 μM", "value": "49.6 mm and 49.6 ± 3.6 mm"}]}
